For test [1], the system named is K562 cells. Put plainly: toxicity at different time points in K562 cells. Type of test: cell-based. The settings on record: K562 leukemia cells, up to 48 hours. An excerpt:
FIG. 7A is a graphical representation of the toxicity of compound 5 at different time points in K562 cells.
FIG. 7B is a graphical representation of the toxicity of compound 6 at different time points in K562 cells.
FIG. 10 is a graphical representation of the toxicity of luminespib (compound 7, as shown in FIG. 6C) at different time points in K562 cells.

The test system of test [2] is K562 cells. In words: apoptosis measured via Annexin V staining. The settings on record: 2.5 μM, 24 hours. It is filed as cell-based.
Description: FIG. 8A is a chart illustrating apoptosis as measured via Annexin V staining of K562 cells treated for 24 hours with 2.5 μM of the compounds indicated. Cell populations were gated with annexin V+/Sytox red− cells as early apoptotic, and annexin V+/Sytox red+ cells as late apoptotic.
As controls, the parent compound luminespib (FIG. 8C, compound 7), and the empty disulfide vector (FIG. 6D) were also tested. The cells were treated with 2.5 μM of each compound.

As for `CCNC(=O)c1noc(-c2cc(C(C)C)c(O)cc2O)c1-c1ccc(CN2CCOCC2)cc1` [luminespib, 5-(2,4-Dihydroxy-5-isopropylphenyl)-N-ethyl-4-(4-(morpholinomethyl)phenyl)isoxazole-3-carboxamide], the “cell toxicity over time” value in the test with K562 cells [1] is “growth inhibition”. The “apoptosis (early and late apoptotic cell populations)” value in the test with K562 cells [2] is reported as “no increase”.

The record behind these values is patent publication US20220273664A1, “Mitochondrial Targeted Releasable Linker” (THE GOVERNING COUNCIL OF THE UNIVERSITY OF TORONTO, priority 2017, published 2022).
